From patent US12391701B2, “Chromene-based compounds, methods and uses thereof” (University of Minho, priority 2019, dated 2025) come the findings set out here.

The subject of one experiment is MCF-7 cells. Nature of the experiment: Wound-healing assay, MCF-7 cell migration. Format: cell-based, human. The following applies: for cell migration less than the control: after 72 hours of treatment, IC50 (and ½IC50) concentration. The method, then: In an embodiment, the effect of the four selected compounds (MC408, MC409, MC406 and MC421) was further evaluated on cell migration (FIG. 1). MCF-7 cells were treated with the respective IC50 and half of the IC50 values for 72 hours and the wound-healing assay was performed. Half of the IC50 concentration was used for each compound to evaluate concentration-dependent effects. […] Results are presented as mean±SD of at least three independent experiments, *p<0.05; **p<0.01; ***p<0.001; ****p<0.0001 compared to control (DMSO, 0.5%).
In an embodiment, cell migration was assessed by the wound-healing assay that mimics the process of cell migration during wound-healing in vivo. This method is based on making a scratch, simulating a wound in a cell monolayer, capturing the images at the beginning and regular intervals during cell migration process to close the wound and comparing the images to quantify the cell migration rate. MCF-7 and Caki-2 cells were plated in 6-well plates at a density of 9.0×10^5 and 3.0×10^5 per 2 mL, respectively, and grown overnight at 37° C. in a 5% CO2 humidified atmosphere. A 200 μL pipette tip was used to make two scratches in a layer of confluent cells. Cells were gently washed once with 500 μL of PBS. MCF-7 cells were treated with compounds at the respective IC50, ½IC50, or 0.5% DMSO (control), for 72 hours. At 0, 12, 24, 48 and 72 hours, specific wound sites (four positions for each wound) were photographed. […] Images were captured at 100× magnification using an Olympus IX51 inverted microscope equipped with an Olympus DP20 Digital Camera System. Assessment of five migration distances was performed using BeWound 1.7.1 and the percentage of cell migration normalized to the control was plotted using GraphPad Prism 6 software. Three independent experiments were performed for each compound. The significance of the difference between different groups was determined with Student t-test.

In another experiment the test system is Hs578t cells. Kind of experiment: Annexin V/PI flow cytometry, Hs578t. The class given is cell-based, human. As to conditions: IC50 concentration; 24 h. The source says: In an embodiment, to understand the mechanisms leading to cell death, cells were studied for the induction of apoptosis by flow cytometry. […] Externalization of phosphatidylserine occurs during the early apoptotic events. While annexin V binds to phosphatidylserine, PI stains only cells that have lost their membrane integrity, an experimental procedure which allows the discrimination between viable cells, early apoptotic cells, late apoptotic/necrotic cells or necrotic cells.
In an embodiment, MCF-7, Hs578t and 786-O cells were seeded in 6-well culture plates and allowed to adhere over 18-20 hours in a complete DMEM (for MCF-7 and Hs578t cells) and complete RPMI (for 786-O cells) medium to detect apoptosis via flow cytometry analysis. […] Triplicates were performed in each experiment. Floating and adherent cells were collected and combined by centrifugation. Elimination of the supernatant was followed by addition of 1 mL of Binding Buffer. 8 μL FITC annexin V (556419, BD Pharmingen) and 30 μl of PI (50 μg/mL, P1304MP, Invitrogen) were added to the cell pellet. Samples were incubated in the dark for 15 min at room temperature. A further 200 μL of Binding Buffer was added to each sample. PI signal was measured using FACS LSRII flow cytometer (BD Biosciences®) with 488 nm excitation laser. The annexin V signal was collected through a 488 nm blocking filter, a 550 nm long-pass dichroic with a 525 nm band pass. Signals were captured and FACS Diva was used as the acquisition software. The percentage of cells in each phase was analysed using the FlowJo 7.6 (Tree Star®) software. Three independent biological replicates were performed.

A further experiment concerns A498 parental cells. Kind of experiment: BrdU proliferation assay, A498 parental. The class given is cell-based. As to conditions: 24 and 48 hours, IC50 and ½IC50.
The next experiment relates to Caki-2 parental cells. Kind of experiment: BrdU proliferation assay, Caki-2 parental. The class given is cell-based. The following applies: 24 and 48 hours, IC50 and ½IC50.

As for `COc1cccc2c1Oc1nc(-c3ccc(F)cc3)[nH]c1C2` [MC409, 2-(4-fluorophenyl)-5-methoxy-3,9-dihydrochromeno[2,3-d]imidazoles], the “decrease of percentage of cell migration relative to control” value in the experiment with MCF-7 cells (after 12 hours, IC50 and ½IC50, control 0.5% DMSO) was “about 40%”. In the experiment with MCF-7 cells, the “cell migration less than the control” value was “about 12%”. The “induction of cell death by apoptosis (annexin V/PI)” value (shortened to “induction of cell death”) in the experiment with Hs578t cells is reported as “induced cell death by apoptosis”.
As to `COc1cccc2c1Oc1nc(-c3ccc(Br)cc3)[nH]c1C2` [MC408, 2-(4-bromophenyl)-5-methoxy-3,9-dihydrochromeno[2,3-d]imidazoles], in the experiment on MCF-7 cells, the “cell migration less than the control” value was determined as 20%. For the same molecule, the “induction of cell death” value in the experiment with Hs578t cells is on record as “inducing cell death by apoptosis (early apoptosis)”. The “effect on cell proliferation (BrdU)” value in the experiment with A498 parental cells is listed as “significant decrease in cell proliferation”.
Turning to `COc1cccc2c1Oc1nc(-c3ccc(Br)cc3)[nH]c1C2C1c2cccc(OC)c2Oc2nc(-c3ccc(Br)cc3)[nH]c21` (stereo not drawn) [MC421, 2,2′-bis(4-bromophenyl)-5,5′-dimethoxy-1,1,9,9′-tetrahydro-9,9′-bichromeno[2,3-]imidazoles], the “cell migration less than the control” value in the experiment on MCF-7 cells is listed as 13%. Moreover, the “induction of cell death” value in the experiment on Hs578t cells is given as “inducing cell death by apoptosis (early apoptosis)”. Besides, the “effect on cell proliferation (BrdU)” value is reported as “significant decrease in cell proliferation” in the experiment on A498 parental cells and “decrease cell proliferation” with Caki-2 parental cells.
For the molecule `COc1cccc2c1Oc1nc(-c3ccc(F)cc3)[nH]c1C2C1c2cccc(OC)c2Oc2nc(-c3ccc(F)cc3)[nH]c21` (stereo not drawn) [MC406, 2,2′-bis(4-fluorophenyl)-5,5′-dimethoxy-1,1,9,9′-tetrahydro-9,9′-bichromeno[2,3-]imidazoles], the “cell migration less than the control” value in the experiment on MCF-7 cells is listed as 20%. In addition, in the experiment on Hs578t cells, the “induction of cell death” value was “induced cell death by apoptosis”.
`COc1cccc2c1Oc1nc(-c3ccc(O)cc3)[nH]c1C2` [MC413, 4-(5-methoxy-3,9-dihydrochromeno[2,3-d]imidazol-2-yl)phenol]: the “effect on cell proliferation (BrdU)” value in the experiment with A498 parental cells is listed as “significant decrease in cell proliferation”; in the experiment on Caki-2 parental cells, “decrease cell proliferation”.
Consider `COc1cccc2c1Oc1nc(-c3ccccc3)[nH]c1C2` [MC350, 5-methoxy-2-phenyl-3,9-dihydrochromeno[2,3-d]imidazoles], for which the “effect on cell proliferation (BrdU)” value with Caki-2 parental cells is “decrease cell proliferation”.
